Structures can show the parent of a compound that is named as a salt.
Experiments:
[1] = system: Burkholderia mallei; format: cell-based
[2] = system: Yersinia Pestis; format: cell-based
[3] = system: Bacillus anthracis; format: cell-based
[4] = system: Clostridium botulinin; format: cell-based
[5] = system: Francisella tularensis; format: cell-based
[6] = system: Brucella abortis, B milletensis and B suis; format: cell-based
[7] = system: Clostridium perfringens; format: cell-based
[8] = system: B anthracis; details: cited from earlier work
[9] = system: anthrax infection; details: in vivo; cited from earlier work

Compound | Suitability against Burkholderia mallei [1] | Suitability against Yersinia Pestis [2] | Suitability against Bacillus anthracis [3] | Suitability against Clostridium botulinin [4] | Suitability against Francisella tularensis [5] | Suitability against Brucella abortis, B milletensis and B suis [6] | Suitability against Clostridium perfringens [7] | Effective against B anthracis in vitro [8] | Efficacy in treatment of anthrax infection, animal models [9] | Sensitivity of naturally occurring anthrax strains [8]
N[C@@H](C(=O)N[C@@H]1C(=O)N2C(C(=O)O)=C(Cl)CS[C@H]12)c1ccccc1 [Cefaclor, 3-chloro-7-D-(2-phenylglycinamido)-3-cephem-4-carboxylic acid monohydrate] | No | Yes | Yes | No | Yes | No | No |  |  | 
Cn1nnnc1SCC1=C(C(=O)O)N2C(=O)[C@@H](NC(=O)[C@H](O)c3ccccc3)[C@H]2SC1 [Cefamandole] | No | Yes | Yes | No | Yes | No | No |  |  | 
Cc1nnc(SCC2=C(C(=O)O)N3C(=O)[C@@H](NC(=O)Cn4cnnn4)[C@H]3SC2)s1 [Cefazolin] | No | Yes | Yes |  | Yes | No |  | effective |  | 
CO/N=C(\C(=O)N[C@@H]1C(=O)N2C(C(=O)O)=C(COC(N)=O)CS[C@H]12)c1ccco1 [Cefuroxime] | No | Yes | Yes | No | Yes | No | No |  |  | 
CC1=C(C(=O)O)N2C(=O)[C@@H](NC(=O)[C@H](N)c3ccccc3)[C@H]2SC1 [Cephalexin Monohydrate] | No | Yes | Yes | No | Yes | No | No |  |  | 
CC(=O)OCC1=C(C(=O)O)N2C(=O)[C@@H](NC(=O)Cc3cccs3)[C@H]2SC1 [Cephalothin] | No | Yes | Yes | No | Yes | No | No |  |  | 
CCn1nc(C(=O)O)c(=O)c2cc3c(cc21)OCO3 [Cinoxacin] | No | Yes | Yes | No | Yes | No | No |  |  | 
CCCCCCCCCC(=O)N[C@@H](Cc1c[nH]c2ccccc12)C(=O)N[C@H](CC(N)=O)C(=O)N[C@@H](CC(=O)O)C(=O)N[C@@H]1C(=O)NCC(=O)N[C@@H](CCCN)C(=O)N[C@@H](CC(=O)O)C(=O)N[C@H](C)C(=O)N[C@@H](CC(=O)O)C(=O)NCC(=O)N[C@H](CO)C(=O)N[C@@H]([C@H](C)CC(=O)O)C(=O)N[C@@H](CC(=O)c2ccccc2N)C(=O)O[C@@H]1C [Daptomycin, N-(1-oxodecyl)-L-tryptophyl-L-asparaginyl-L-A-aspartyl-L-threonylglycyl-L-ornithyl-L-A-aspartyl-D-alanyl-L-A-aspartylglycyl-D-seryl-threo-3-methyl-L-A-glutamyl-G-(2-aminophenyl)-G-oxo-L-A-aminobutanoicacid, E1-lactone] | No | No | Yes | Yes* | No | No | Yes** |  |  | 
N[C@@H](C(=O)N[C@@H]1C(=O)N2C(C(=O)O)=C(Cl)CC[C@H]12)c1ccccc1.O [Loracarbef, (6R,7S)-7-[(R)-2-amino-2-phenylacetamido]-3-chloro-8-oxo-1-azabicyclo[4.2.0]oct-2-ene-2-carboxylic acid, monohydrate] | No | Yes | Yes | No | Yes | No | No |  |  | 
CN[C@H](CC(C)C)C(=O)N[C@H]1C(=O)N[C@@H](CC(N)=O)C(=O)N[C@H]2C(=O)N[C@H]3C(=O)N[C@H](C(=O)N[C@H](C(=O)O)c4cc(O)cc(O)c4-c4cc3ccc4O)[C@H](O[C@H]3C[C@](C)(N)[C@@H](O)[C@H](C)O3)c3ccc(c(Cl)c3)Oc3cc2cc(c3O[C@@H]2O[C@H](CO)[C@@H](O)[C@H](O)[C@H]2O[C@H]2C[C@](C)(NCc3ccc(-c4ccc(Cl)cc4)cc3)[C@@H](O)[C@H](C)O2)Oc2ccc(cc2Cl)[C@H]1O [Oritavancin, (4″R)-22-O-(3-amino-2,3,6-trideoxy-3-C-methyl-A-L-arabino-hexopyranosyl)-N3″-((4-chloro(1,1′-biphenyl)-4′-yl)methyl)vancomycin] | No | No | Yes | Yes* | No | No | Yes** |  |  | 
NC[C@H]1O[C@H](O[C@H]2[C@H](O)[C@@H](O[C@H]3O[C@H](CO)[C@@H](O)[C@H](N)[C@H]3O)[C@H](N)C[C@@H]2N)[C@H](N)C[C@@H]1O [Tobramycin] | Yes | Yes | Yes | No | Yes | Yes | No |  |  | 
CN[C@H](CC(C)C)C(=O)N[C@H]1C(=O)N[C@@H](CC(N)=O)C(=O)N[C@H]2C(=O)N[C@H]3C(=O)N[C@H](C(=O)N[C@H](C(=O)O)c4cc(O)cc(O)c4-c4cc3ccc4O)[C@H](O)c3ccc(c(Cl)c3)Oc3cc2cc(c3O[C@@H]2O[C@H](CO)[C@@H](O)[C@H](O)[C@H]2O[C@H]2C[C@](C)(N)[C@H](O)[C@H](C)O2)Oc2ccc(cc2Cl)[C@H]1O [Vancomycin HCl] | No | No | Yes | Yes* | No | No | Yes** | effective |  | 
O=C(N[C@H](CO)[C@H](O)c1ccc([N+](=O)[O-])cc1)C(Cl)Cl [chloramphenicol] |  |  |  |  |  |  |  | effective |  | 
O=C(O)c1cn(C2CC2)c2cc(N3CCNCC3)c(F)cc2c1=O [ciprofloxacin] |  |  |  |  |  |  |  |  | excellent efficacy | 
CC[C@H]1OC(=O)[C@H](C)[C@@H](O[C@H]2C[C@@](C)(OC)[C@@H](O)[C@H](C)O2)[C@H](C)[C@@H](O[C@@H]2O[C@H](C)C[C@H](N(C)C)[C@H]2O)[C@](C)(O)C[C@@H](C)C(=O)[C@H](C)[C@@H](O)[C@]1(C)O [erythromycin] |  |  |  |  |  |  |  | effective |  | 
penicillin |  |  |  |  |  |  |  |  |  | sensitive

Reference: patent US20030176327A1 (priority 2001, published 2003)
